One experiment relates to ICR mice. Kind of experiment: Mice acetic acid writhing pain model (visceral and inflammatory pain). Format: in vivo. Particulars: 1 h before acetic acid, saline group 49 times. The procedure: Male ICR mice, 22-25 g, were fasted but allowed to drink water freely for 2 h before administration. All ICR mice were weighed and grouped randomly, each group had >10 animals. […] The drug was administrated by gavage based on the weight of mice. 1.5% acetic acid solution (0.1 ml/10 g) was injected intraperitoneally 1 h after administration, and the number of times of visceral pain in each group was observed within 30 min. When concave abdomen, stretched trunk and hind claw, and high buttocks appeared, one number point was recorded. Finally, the number of appearance of the above phenomenon was counted within 30 minutes.

For a further experiment, the system named is Sprague-Dawley rats. Kind of experiment: Rat hot plate pain model (acute pain). It is filed as in vivo. The procedure:
Sprague-Dawley male, mature and unmated rats were placed at hot and cold plate (product model: PE34, US IITC) with constant 53±0.1° C. Mice with painful response such as licking claw, shaking claw or slightly jumping within 10-30 s were selected, and mice which evaded and jumped were abandoned. […] The test compound was freshly prepared on the day of administration. 0.9% NaCl physiological saline solution was prepared as solvent for later use. Appropriate amount of test compound was added into required volume of physiological saline and fully suspended, and the concentration of prepared drug was 1 mg/ml. […] After administration, the latency of heat pain was measured at 0.5 h, 1 h and 2 h after administration. In order to prevent animals from being scalded on the hot plate, the maximum incubation time was set to 30 s. Maximum possible effect (MPE) % was used to evaluate analgesic effect of each compound, i.e., MPE %=[(Post drug latency−baseline latency)/(30−baseline latency)]×100. MPE % at different time points was recorded.

The subject of another experiment is HepG-2 cells. Kind of experiment: Cytotoxicity test (CCK-8), hepatotoxicity. Format: cell-based. Particulars: HepG2 cell, 72 h. On the procedure: (§1) In this example, hepatotoxicity and neurotoxicity of compound I-1 and S-duloxetine were detected.
(§2) HepG-2 and SH-SY5Y cells were placed in 10 cm dish and cultured at 37° C., 5% CO2 in a cell incubator. Trypsin was used to digest and resuspend cells and cells were counted. The cells were transferred to 96-well plate with 8000 cells in a well (100 μl/well), cultured at 37° C., 5% CO2 in a cell incubator for 24 hrs. A serial of gradient concentration dilutions of compound I-1 (prepared in example 2 of the present invention) with 2-fold dilution were prepared, and the system was 100 μL/well. The supernatant of cell culture system in the 96-well plate was removed on the first day, and fresh-prepared drug concentration system was add into culture plate wells (duplicate wells were set). The cells were cultured at 37° C., 5% CO2 in a cell incubator for 72 h. […] Microplate reader was used to measure the absorbance at 450 nm. Data was processed to calculate cytotoxicity, and IC50 was calculated by GraphPad Prism. […]
(§3) A (Dosing): the absorbance of wells containing cells, CCK-8 solution and drug solution.
(§4) A (control): the absorbance of wells containing medium and CCK-8 solution and without cells.
(§5) A (0 Dosing): the absorbance of wells containing cells and CCK-8 solution but without drug solution […]

The subject of the next experiment is SD rats. Kind of experiment: Rat SNL model, mechanical allodynia test (nerve pain). Format: in vivo. The settings on record: 1 h after administration, control group 3.967 ± 0.775.
In a further experiment the test system is C57BL/6 mice. Kind of experiment: Mice formalin pain model (acute and inflammatory pain). Format: in vivo. The settings on record: for Licking claw time (s) in phase II (10-60 min): hydrochloride salt, blank vehicle 349.55 ± 43.09. From the text:
150 C57BL/6 mice (male, 9-week aged) were randomly divided into 15 groups, (each group had 10 mice) for the analgesic activity test of 3 compounds in the mice formalin pain model respectively: the compound I-1 group (compound I-1 prepared in Example 2 whose hydrochloride salt was used in the experiment), the S-duloxetine group (its hydrochloride salt was used in the experiment) and the compound C1 group (the compound C1 prepared in Comparative Example 1, whose hydrochloride salt was used in the experiment). Before the start of experiments, the mice were allowed to adapt to the experimental environment for 72 h with free feeding and drinking water. The test drugs were administrated by intraperitoneal injection at a dosage as follows:
Compound I-1 group: blank vehicle (blank saline control), 0.1 mg/kg, 0.5 mg/kg, 1 mg/kg, 5 mg/kg and 10 mg/kg;
S-duloxetine group: blank vehicle (blank saline control), 1 mg/kg, 5 mg/kg, 10 mg/kg and 20 mg/kg;
Compound C1 group: blank vehicle (blank saline control), 0.1 mg/kg, 0.5 mg/kg, 1 mg/kg, 5 mg/kg and 10 mg/kg.
After administration, the mice were placed in a transparent, ventilated plexiglass cylinder for 1 h, and then 20 μl of 4% formalin solution was injected into the left hind plantar of mice of each group by microinjector, claw pain response in mice were real-time recorded by a mini-camera. The time length of licking left claw were used as an indicator of pain response, licking time in 0-10 min (phase I) and 10-60 min (phase II) were observed and recorded, and the statistical analysis was conducted. The half effective dose (ED50) of 3 compounds were calculated: ED50 referred to the dose of the drug which decreased licking time by half as compared with the blank control group. The smaller the ED50 value was, the lower the effective analgesic dose of the compound was and the better the analgesic effect was.

For another experiment, the system named is SH-SY5Y cells. Kind of experiment: Cytotoxicity test (CCK-8), neurotoxicity. The settings on record: 72 h. Format: cell-based. The procedure:
as §1, §2, §3, §4, §5

The mark [1] stands for this setting: 0.5 h after administration, 30 mg/kg intraperitoneal, hydrochloride salt.
Setting [2] is: 1 h after administration, 30 mg/kg intraperitoneal, hydrochloride salt.
[3] abbreviates: 2 h after administration, 30 mg/kg intraperitoneal, hydrochloride salt.

pIC50: −log10 of the molar value.

Protocol for SD rats: Male SPF grade SD rats, weighed 150 g-180 g, were selected. Aseptic operation during surgery was performed. The animals were anesthetized with sodium pentobarbital (50 mg/kg, intraperitoneal injection). The surgical area of animal waist was shaved and the skin was disinfected three times with iodophor and 70% ethanol. After the skin was dried, the operation was started. Surgical knife was used to make a longitudinal incision at the back of the sacrum of the animal waist to expose the left paraspinal muscles, and stretcher was used to separate muscle tissue to expose the spine. The left spinal nerves L5 and L6 were separated and ligated with a 6-0 silk thread, and the wound was sutured. After the operation, the animals were placed on electrothermal pad, and 5 mL of saline was injected subcutaneously to prevent dehydration. After the animals were fully awakened and could move around freely, the animals were put back in the cage.
After the operation, the animals were adapted in the experimental environment for 15min/day for 3 days.
The animals were weighed to calculate the dose. […] After administration, mechanical allodynia test was performed. The rat was individually placed in a plexiglass box with a grid on the bottom of the box to ensure that the rat claw could be tested. The rats were allowed to adapt the environment for 15 min before test. After the adaptation was completed, the test fiber was used to test the center of the left hind claw of the rat. The test fiber comprises 8 test strengths: 3.61 (0.4 g), 3.84 (0.6 g), 4.08 (1 g), 4.31 (2 g), 4.56 (4 g), 4.74 (6 g), 4.93 (8 g), and 5.18 (15 g). […] During the test, rapid withdrawal of animal claw was recorded as pain response. When the test fiber was removed from animal skin, the withdrawal of animal claw was also recorded as pain response. If animal moved, the pain response was not recorded, and the test was repeated. […]
Mechanical allodynia was expressed as withdrawal threshold (PWT) in rat behavioral test, which was calculated with the following formula: […]

For `COc1ccc2c(c1)c(CC(=O)O)c(C)n2C(=O)c1ccc(Cl)cc1` [indomethacin], the “number of appearance of writhing reactions (visceral pain) within 30 min” value (shortened to “number”) with ICR mice (10 mg/kg by gavage) is on record as 28 times.
In the case of `CNCC[C@H](Oc1cccc2ccccc12)c1cccs1` [S-duloxetine], the MPE % with Sprague-Dawley rats (setting [1]) stood at 5.75 ± 5.74%; in the experiment with Sprague-Dawley rats (setting [2]), 7.44 ± 5.12%; in the experiment on Sprague-Dawley rats (setting [3]), 13.53 ± 4.99%. For the same compound, the values for the pIC50 with HepG-2 cells and in the experiment with SH-SY5Y cells were 4.48 and 4.54, respectively. Moreover, the “PWT(g), claw withdrawal threshold” value in the experiment with SD rats (10 mg/kg oral, hydrochloride salt) was 6.519 ± 2.226 g. The “number” value with ICR mice (10 mg/kg by gavage) amounted to 27 times; in the experiment with ICR mice (20 mg/kg by gavage) it was 21 times. In addition, the “Licking claw time (s) in phase II (10-60 min)” value with C57BL/6 mice (1 mg/kg intraperitoneal) stood at 259.97 ± 64.44 s; with C57BL/6 mice (5 mg/kg intraperitoneal) it was 230.49 ± 41.31 s; in the experiment on C57BL/6 mice (10 mg/kg intraperitoneal) it was 162.83 ± 36.27 s; in the experiment on C57BL/6 mice (20 mg/kg intraperitoneal) it was 72.27 ± 17.29 s. For the same compound, in the experiment on C57BL/6 mice (intraperitoneal, dose that decreases licking time by half vs blank control), the “ED50 in phase II pain” value is 8.00 mg/kg.
Regarding `CN1[C@H]2C[C@H](OC(=O)[C@H](CO)c3ccccc3)C[C@@H]1[C@@H](O)C2` [anisodamine], the “number” value with ICR mice (10 mg/kg by gavage) was determined as 27 times.
On to `NCC1(CC(=O)O)CCCCC1` [Gabapentin, gabapentin], for which the MPE % in the experiment with Sprague-Dawley rats (0.5 h after administration, 100 mg/kg intraperitoneal) stood at 6.47 ± 5.49%; with Sprague-Dawley rats (1 h after administration, 100 mg/kg intraperitoneal) it was 14.56 ± 6.18%; in the experiment on Sprague-Dawley rats (2 h after administration, 100 mg/kg intraperitoneal), 22.66 ± 4.93%. In addition, in the experiment on SD rats (100 mg/kg oral), the “PWT(g), claw withdrawal threshold” value is 6.352 ± 1.897 g.
For the compound `CNCC[C@H](Oc1cccc2ccoc12)c1cccs1` [Compound C1, (S)-3-(benzofuran-7-yloxy)-N-methyl-3-(thiophen-2-yl)propyl-1-amine], the MPE % in the experiment with Sprague-Dawley rats (setting [1]) worked out at 5.29 ± 1.56%; in the experiment on Sprague-Dawley rats (setting [2]), 14.20 ± 5.71%; in the experiment on Sprague-Dawley rats (setting [3]) it was 21.83 ± 2.45%. Moreover, the “Licking claw time (s) in phase II (10-60 min)” value in the experiment with C57BL/6 mice (0.1 mg/kg intraperitoneal) amounted to 339.35 ± 27.90 s; with C57BL/6 mice (0.5 mg/kg intraperitoneal), 368.16 ± 44.46 s; in the experiment on C57BL/6 mice (1 mg/kg intraperitoneal) it was 171.57 ± 39.69 s; in the experiment on C57BL/6 mice (5 mg/kg intraperitoneal), 158.02 ± 25.18 s; with C57BL/6 mice (10 mg/kg intraperitoneal), 35.68 ± 11.77 s.

These data come from patent US20250042884A1, “3-ARYLOXYL-3-FIVE-MEMBERED HETEROARYL PROPYLAMINE COMPOUND AND USE THEREOF” (Shanghai Leado Pharmatech Co. Ltd., priority 2018, published 2025).
